The experiment relates to T1, MbCld.
T1 construct: gene cld; native, soluble protein fraction of chlorate-grown cells; not purified
Briefly: chloride ion selective electrode, initial rates, Michaelis-Menten fit. The format is biochemical, Magnetospirillum bellicus. As to conditions: 10 mM phosphate buffer pH 7.0, 21–23°C; soluble protein fraction. From the text:
chloride ion selective electrode, initial rates, Michaelis-Menten fit on MbCld

In the case of `[O-][Cl+]O` [chlorite], the Km came out at 360 ± 210 µM.

These data come from paper PMC5733030, “Characterizing Isozymes of Chlorite Dismutase for Water Treatment” (Frontiers in Microbiology, 2017).
